For data set [1] the following is noted: patients homozygous for CYP2D6 PM genotype on double dose (40 mg) of TAM; cited from earlier work.
The nature of data set [2]: Plasma concentrations of TAM, TOR and their metabolites by LC–MS/MS (screening study).
The conditions of data set [3]: weighting of plasma concentration; cited from earlier work.
The mark [4] stands for this setting: 14 poor TAM metabolizers enrolled in the dose-escalation study.
[5] abbreviates: patients on TAM 20 mg a day, N=182.

Consider `CC/C(=C(\c1ccc(O)cc1)c1ccc(OCCNC)cc1)c1ccccc1` [Endoxifen, endoxifen], for which the “Endoxifen concentration relative to EMs” value in data set [1] is “less than one-half of the endoxifen concentrations for EMs”. In data set [2] (setting [4]), the “Endoxifen on TAM 20 mg, max” value was determined as 12.6 ng/mL; the “Endoxifen on TAM 20 mg, mean” value is given as 9.7 ng/mL; the “Endoxifen on TAM 20 mg, median” value is on record as 10.4 ng/mL; the “Endoxifen on TAM 20 mg, min” value is 1.8 ng/mL. Besides, the “Patients with endoxifen levels lower than 15 ng/mL” value in data set [2] (among the 182 patients on TAM) amounted to 50. In addition, the “Patients with endoxifen levels < 7.5 ng/mL” value in data set [2] (of the 273 participating patients) stood at 11. Besides, in data set [2] (setting [5]), the “Plasma concentration, max” value was 64.5 ng/mL; the “Plasma concentration, mean” value was determined as 23.5 ng/mL; the “Plasma concentration, median” value is listed as 22.8 ng/mL; the “Plasma concentration, min” value is on record as 1.8 ng/mL. Moreover, in data set [2] (patients taking TAM 20 mg a day), the “Plasma concentration, variability (range)” value is 1.8 to 64.5 ng/mL. Also, the “In vitro activity factor in the total activity of TAM (TAM = 1.0)” value in data set [3] is on record as 46.3.

The values are drawn from article PMC6694038, “Pharmacogenomic–pharmacokinetic study of selective estrogen-receptor modulators with intra-patient dose escalation in breast cancer” (Breast Cancer (Tokyo, Japan), 2019).
